Laboratory results: ChEMBL document CHEMBL1142788, “Synthesis and antibacterial activity of alkyl derivatives of the glycopeptide antibiotic A40926 and their amides” (2005)
Values after ≈ are worked out from the molar mass of the structure shown.

Tests used:
[1] = tested on: Staphylococcus epidermidis; experiment: Minimum inhibitory concentration against methicillin-sensitive Staphylococcus epidermidis in the presence of 30% bovine serum; assay type: functional
Staphylococcus aureus [2] = experiment: Minimum inhibitory concentration against methicillin-sensitive Staphylococcus aureus without serum
[3] = tested on: Staphylococcus epidermidis; experiment: Minimum inhibitory concentration against methicillin-resistant Staphylococcus epidermidis in the presence of 30% bovine serum; assay type: functional
Enterococcus faecalis [4] = experiment: Minimum inhibitory concentration against vancomycin-A Enterococcus faecalis (n=4) (Range = 1 - 8 mg/L)
Enterococcus faecium [5] = experiment: Minimum inhibitory concentration against vancomycin-sensitive Enterococcus faecium in the presence of 30% bovine serum(n=1) (range = 1-8 mg/l); assay type: functional
Enterococcus faecium [6] = experiment: Minimum inhibitory concentration against vancomycin-A Enterococcus faecium in the presence of 30% bovine serum (n=1) (range = 2>128); assay type: functional
Enterococcus faecalis [7] = experiment: Minimum inhibitory concentration against vancomycin-sensitive Enterococcus faecalis in the presence of 30% bovine serum(n=3)(range = 0.125-0.5mg/l); assay type: functional
Staphylococcus aureus [8] = experiment: Minimum inhibitory concentration against methicillin-resistant Staphylococcus aureus
[9] = tested on: Staphylococcus haemolyticus; experiment: Minimum inhibitory concentration against Staphylococcus haemolyticus in the presence of 30% bovine serum; assay type: functional
Enterococcus faecalis [10] = experiment: Minimum inhibitory concentration against vancomycin-A Enterococcus faecalis in the presence of 30% bovine serum (n=4); assay type: functional
Enterococcus faecium [11] = experiment: Minimum inhibitory concentration against vancomycin-A Enterococcus faecium in the presence of 30% bovine serum (n=1) (range = 4-8mg/L); assay type: functional
Enterococcus faecium [12] = experiment: Minimum inhibitory concentration against vancomycin-sensitive Enterococcus faecium in the presence of 30% bovine serum(n=1); assay type: functional
Enterococcus faecalis [13] = experiment: Minimum inhibitory concentration against vancomycin-sensitive Enterococcus faecalis in the presence of 30% bovine serum (n=3); assay type: functional
Staphylococcus aureus [14] = experiment: Minimum inhibitory concentration against methicillin-sensitive Staphylococcus aureus
Enterococcus faecium [15] = experiment: Minimum inhibitory concentration against vancomycin-A Enterococcus faecium in the presence of 30% bovine serum (n=1) (range = 2-32mg/l); assay type: functional
Enterococcus faecalis [16] = experiment: Minimum inhibitory concentration against vancomycin-A Enterococcus faecalis in the presence of 30% bovine serum(n=4) (range = 1-16mg/L); assay type: functional
Enterococcus faecalis [17] = experiment: Minimum inhibitory concentration against vancomycin-sensitive Enterococcus faecalis in the presence of 30% bovine serum(n=3)(range = >=0.125-0.25mg/l); assay type: functional
Enterococcus faecium [18] = experiment: Minimum inhibitory concentration against vancomycin-A Enterococcus faecium in the presence of 30% bovine serum (n=1) (128>128mg/L); assay type: functional
Enterococcus faecalis [19] = experiment: Minimum inhibitory concentration against vancomycin-A Enterococcus faecalis (n=4) (range = 0.25-8mg/L)
Enterococcus faecium [20] = experiment: Minimum inhibitory concentration against vancomycin-A Enterococcus faecium in the presence of 30% bovine serum (n=1) (range = 0.125-16mg/l); assay type: functional

Row | SMILES | MIC [1] [µg/mL] | MIC (Staphylococcus aureus [2]) [µg/mL] | MIC [3] [µg/mL] | MIC (Enterococcus faecalis [4]) [µg/mL] | MIC (Enterococcus faecium [5]) [µg/mL] | MIC (Enterococcus faecium [6]) [µg/mL] | MIC (Enterococcus faecalis [7]) [µg/mL] | MIC (Staphylococcus aureus [8]) [µg/mL] | MIC [9] [µg/mL] | MIC (Enterococcus faecalis [10]) [µg/mL] | MIC (Enterococcus faecium [11]) [µg/mL] | MIC (Enterococcus faecium [12]) [µg/mL] | MIC (Enterococcus faecalis [13]) [µg/mL] | MIC (Staphylococcus aureus [14]) [µg/mL] | MIC (Enterococcus faecium [15]) [µg/mL] | MIC (Enterococcus faecalis [16]) [µg/mL] | MIC (Enterococcus faecalis [17]) [µg/mL] | MIC (Enterococcus faecium [18]) [µg/mL] | MIC (Enterococcus faecalis [19]) [µg/mL] | MIC (Enterococcus faecium [20]) [µg/mL]
1 | CCCCOc1ccc(CNC2[C@H](Oc3c4cc5cc3Oc3ccc(cc3Cl)[C@@H](O)C3NC(=O)[C@H](NC(=O)[C@@H]5NC(=O)[C@H]5NC(=O)[C@@H](Cc6ccc(cc6)O4)NC(=O)[C@H](N(C)Cc4ccc(OCCCC)cc4)c4ccc(O)c(c4)Oc4cc(O)c(Cl)c5c4)c4ccc(O)c(c4)-c4c(O[C@H]5O[C@H](CO)[C@@H](O)[C@H](O)[C@@H]5O)cc(O)cc4[C@@H](C(=O)O)NC3=O)OC(C(=O)O)C(O)[C@@H]2O)cc1 (stereo partly drawn) | 2 | 2 (≈ 1.07 µM) | 8 | 8 (≈ 4.27 µM) | 2 | > 128 | 0.5 | 1 (≈ 0.533 µM) | 32 |  |  |  |  |  |  |  |  |  |  | 
2 | CCCCCCCCCCc1ccc(CNC2[C@H](Oc3c4cc5cc3Oc3ccc(cc3Cl)[C@@H](O)C3NC(=O)[C@H](NC(=O)[C@@H]5NC(=O)[C@H]5NC(=O)[C@@H](Cc6ccc(cc6)O4)NC(=O)[C@H](NC)c4ccc(O)c(c4)Oc4cc(O)c(Cl)c5c4)c4ccc(O)c(c4)-c4c(O[C@H]5O[C@H](CO)[C@@H](O)[C@H](O)[C@@H]5O)cc(O)cc4[C@@H](C(=O)NCCCN(C)C)NC3=O)OC(C(=O)NCCCN(C)C)C(O)[C@@H]2O)cc1 (stereo partly drawn) | 1 |  |  |  |  |  |  | 2 (≈ 1.03 µM) | 2 | 4 | 8 | 0.25 | 0.25 |  |  |  |  |  |  | 
3 | CN(C)CCCNC(=O)C1O[C@@H](Oc2c3cc4cc2Oc2ccc(cc2Cl)[C@@H](O)C2NC(=O)[C@H](NC(=O)[C@@H]4NC(=O)[C@H]4NC(=O)[C@@H](Cc5ccc(cc5)O3)NC(=O)[C@H](N(C)Cc3ccc(-c5ccccc5)cc3)c3ccc(O)c(c3)Oc3cc(O)c(Cl)c4c3)c3ccc(O)c(c3)-c3c(O[C@H]4O[C@H](CO)[C@@H](O)[C@H](O)[C@@H]4O)cc(O)cc3[C@@H](C(=O)NCCCN(C)C)NC2=O)C(NCc2ccc(-c3ccccc3)cc2)[C@@H](O)C1O (stereo partly drawn) | 0.25 |  | 1 |  |  |  |  | 1 (≈ 0.488 µM) | 2 |  |  | 0.5 | 0.25 | 1 (≈ 0.488 µM) | 32 | 4 |  |  |  | 
4 | CCCCCCC(CCCC)CNC1[C@H](Oc2c3cc4cc2Oc2ccc(cc2Cl)[C@@H](O)C2NC(=O)[C@H](NC(=O)[C@@H]4NC(=O)[C@H]4NC(=O)[C@@H](Cc5ccc(cc5)O3)NC(=O)[C@H](NC)c3ccc(O)c(c3)Oc3cc(O)c(Cl)c4c3)c3ccc(O)c(c3)-c3c(O[C@H]4O[C@H](CO)[C@@H](O)[C@H](O)[C@@H]4O)cc(O)cc3[C@@H](C(=O)O)NC2=O)OC(C(=O)O)C(O)[C@@H]1O (stereo partly drawn) | 2 |  | 32 |  |  |  |  | 2 (≈ 1.16 µM) | 32 | > 128 |  | 1 |  | 4 (≈ 2.33 µM) |  |  | ≤ 0.125 | > 128 |  | 
5 | CCCCOc1ccc(CNC2[C@H](Oc3c4cc5cc3Oc3ccc(cc3Cl)[C@@H](O)C3NC(=O)[C@H](NC(=O)[C@@H]5NC(=O)[C@H]5NC(=O)[C@@H](Cc6ccc(cc6)O4)NC(=O)[C@H](N(C)Cc4ccc(OCCCC)cc4)c4ccc(O)c(c4)Oc4cc(O)c(Cl)c5c4)c4ccc(O)c(c4)-c4c(O[C@H]5O[C@H](CO)[C@@H](O)[C@H](O)[C@@H]5O)cc(O)cc4[C@@H](C(=O)NCCCN(C)C)NC3=O)OC(C(=O)NCCCN(C)C)C(O)[C@@H]2O)cc1 (stereo partly drawn) | < 0.125 |  | 0.5 |  |  |  |  | 1 (≈ 0.489 µM) | 1 |  |  | 0.125 | < 0.125 | 0.25 (≈ 0.122 µM) |  |  |  |  | 8 (≈ 3.92 µM) | > 16
